Literature values, collected in US20030072802A1, “Sustained release topiramate” (R.T. Alamo Ventures, Inc., priority 2001, published 2003).

Assays:
[1] = test system: state-dependent sodium channel (cultured neurons)
[2] = formulations currently in use; after a 200 mg dose
[3] = test system: kainate/AMPA subtype of excitatory amino acid (glutamate) receptor

CC1(C)OC2COC3(COS(N)(=O)=O)OC(C)(C)OC3C2O1 [topiramate, 2,3:4,5-bis-Q-(1-methylethylidene)-p-D-fructopyranose sulfamate]
effect on action potentials elicited repetitively by sustained depolarization [1]: blocked by topiramate in a time-dependent manner
half life of plasma concentration [2]: about 21 hours
time of peak topiramate plasma concentration [2]: about 2 hours
effect on the activity of NMDA at the NMDA receptor subtype (NMDA receptor subtype): no apparent effect
effect on GABA-induced flux of chloride ions into neurons (GABAA receptors): enhances the ability of GABA to induce a flux of chloride ions into neurons
effect on the duration of the channel open time (GABAA receptors): nor did topiramate increase the duration of the channel open time
effect on the frequency at which GABA activates GABAA receptors (GABAA receptors): increases the frequency
sensitivity of the GABA-potentiating effect to flumazenil (benzodiazepine antagonist) (GABAA receptors): not blocked by flumazenil
effect on the ability of kainate to activate the kainate/AMPA receptor [3]: antagonizes the ability of kainate to activate
